Laboratory results published in ChEMBL document CHEMBL5370665, “Insight from Linker Investigations: Discovery of a Novel Phenylbenzothiazole Necroptosis Inhibitor Targeting Receptor-Interacting Protein Kinase 1 (RIPK1) from a Phenoxybenzothiazole Compound with Dual RIPK1/3 Targeting Activity” (J Med Chem, 2023).
Calls of active or inactive are those of the source. No cut-off for these calls is given here.

Legend:
HT-29 [1] = assay: Anti-necroptic activity against human HT-29 cells assessed as inhibition of TSZ (TNFalpha, Smac mimetic and z-VAD-FMK) induced necroptosis pretreated with compound followed by TSZ stimulation for 16 to 18 hrs by CellTiter-Glo Luminescent cell viability assay; format: functional, cell-based
[2] = Cytotoxicity against human HT-29 cells assessed as reduction in cell viability incubated for 16 to 24 hrs by CellTiter-Glo Luminescent cell viability assay; format: toxicity, cell-based; conditions: time 16-24 hrs
HT-29 [3] = assay: Anti-necroptic activity in TSZ (TNFalpha, Smac mimetic and z-VAD-FMK) induced necroptosis in human HT-29 cells assessed as increase in cell viability preincubated for 30 mins pretreated followed by TSZ stimulation and measured after 16 hrs by MTT assay; format: functional, cell-based
HT-29 [4] = assay: Anti-apoptotic activity against human HT-29 cells assessed as inhibition of TC (human TNFalpha, cycloheximide) induced apoptosis upto 20 uM pretreated with compound followed by TC stimulation for 36 hrs by CellTiter-Glo Luminescent cell viability assay; format: functional, cell-based
[5] = target: T1, Receptor-interacting serine/threonine-protein kinase 1 (Homo sapiens, UniProt Q13546); assay: Binding affinity to recombinant RIPK1 (unknown origin) assessed as dissociation constant incubated for 1 hr by KINOMEscanTM assay
T1 sequence (Q13546 whole entry): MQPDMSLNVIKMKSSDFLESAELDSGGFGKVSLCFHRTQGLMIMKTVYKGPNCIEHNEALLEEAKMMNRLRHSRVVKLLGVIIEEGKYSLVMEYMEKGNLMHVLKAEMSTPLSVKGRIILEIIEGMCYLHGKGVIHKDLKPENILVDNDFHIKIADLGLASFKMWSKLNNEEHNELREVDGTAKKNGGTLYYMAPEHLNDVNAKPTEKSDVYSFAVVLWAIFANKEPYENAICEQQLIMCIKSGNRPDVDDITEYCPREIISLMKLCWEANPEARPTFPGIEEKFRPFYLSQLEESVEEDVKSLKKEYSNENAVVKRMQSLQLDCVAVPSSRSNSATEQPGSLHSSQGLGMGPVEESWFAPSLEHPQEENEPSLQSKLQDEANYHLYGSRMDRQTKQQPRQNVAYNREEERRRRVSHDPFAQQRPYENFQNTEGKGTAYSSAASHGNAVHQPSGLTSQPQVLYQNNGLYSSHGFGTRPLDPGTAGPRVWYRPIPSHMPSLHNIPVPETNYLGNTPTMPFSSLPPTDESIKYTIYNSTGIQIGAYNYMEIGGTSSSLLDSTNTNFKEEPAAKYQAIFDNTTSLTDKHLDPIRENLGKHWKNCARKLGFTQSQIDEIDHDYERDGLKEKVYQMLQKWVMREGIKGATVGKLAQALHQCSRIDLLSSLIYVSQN

[6] = target: Receptor-interacting serine/threonine-protein kinase 3 (Homo sapiens, UniProt Q9Y572); assay: Binding affinity to recombinant RIPK3 (unknown origin) assessed as dissociation constant incubated for 1 hr by KINOMEscanTM assay
Mus musculus [7] = assay: Anti-inflammatory activity against C57BL/6J mouse model of TNFalpha-induced systemic inflammatory response syndrome (SIRS) assessed as increase in body temperature at 5 mg/kg,po 2 hrs prior to mTNFalpha and z-VAD-FMK stimulation and measured upto 18 hrs by electric thermometer analysis; format: functional, organism-based; conditions: time 20.0 hrs
Mus musculus [8] = assay: Anti-inflammatory activity against C57BL/6J mouse model of TNFalpha-induced systemic inflammatory response syndrome (SIRS) assessed as increase in survival rate at 5 mg/kg,po 2 hrs prior to mTNFalpha and z-VAD-FMK stimulation and measured upto 24 hrs; format: functional; conditions: time 26 hrs
Mus musculus [9] = assay: Anti-inflammatory activity against C57BL/6J mouse model of TNFalpha-induced systemic inflammatory response syndrome (SIRS) assessed as decrease in IL-6 level in heart at 5 mg/kg,po 2 hrs prior to mTNFalpha and z-VAD-FMK stimulation for 8 hrs by ELISA; format: functional, organism-based; conditions: time 10.0 hrs
Mus musculus [10] = assay: Anti-inflammatory activity against C57BL/6J mouse model of TNFalpha-induced systemic inflammatory response syndrome (SIRS) assessed as decrease in IL-6 level in liver at 5 mg/kg,po 2 hrs prior to mTNFalpha and z-VAD-FMK stimulation for 8 hrs by ELISA; format: functional, organism-based; conditions: time 10.0 hrs
Mus musculus [11] = assay: Anti-inflammatory activity against C57BL/6J mouse model of TNFalpha-induced systemic inflammatory response syndrome (SIRS) assessed as decrease in IL-6 level in spleen at 5 mg/kg,po 2 hrs prior to mTNFalpha and z-VAD-FMK stimulation for 8 hrs by ELISA; format: functional, organism-based; conditions: time 10.0 hrs
Mus musculus [12] = assay: Anti-inflammatory activity against C57BL/6J mouse model of TNFalpha-induced systemic inflammatory response syndrome (SIRS) assessed as decrease in IL-6 level in lung at 5 mg/kg,po 2 hrs prior to mTNFalpha and z-VAD-FMK stimulation for 8 hrs by ELISA; format: functional, organism-based; conditions: time 10.0 hrs
Mus musculus [13] = assay: Anti-inflammatory activity against C57BL/6J mouse model of TNFalpha-induced systemic inflammatory response syndrome (SIRS) assessed as decrease in IL-6 level in kidney at 5 mg/kg,po 2 hrs prior to mTNFalpha and z-VAD-FMK stimulation for 8 hrs by ELISA; format: functional, organism-based; conditions: time 10.0 hrs
Mus musculus [14] = assay: Anti-inflammatory activity against C57BL/6J mouse model of TNFalpha-induced systemic inflammatory response syndrome (SIRS) assessed as decrease in IL-6 level in intestine at 5 mg/kg,po 2 hrs prior to mTNFalpha and z-VAD-FMK stimulation for 8 hrs by ELISA; format: functional, organism-based; conditions: time 10.0 hrs
Mus musculus [15] = assay: Anti-inflammatory activity against C57BL/6J mouse model of TNFalpha-induced systemic inflammatory response syndrome (SIRS) assessed as decrease in IL-6 level in brain at 5 mg/kg,po 2 hrs prior to mTNFalpha and z-VAD-FMK stimulation for 8 hrs by ELISA; format: functional, organism-based; conditions: time 10.0 hrs
Mus musculus [16] = assay: Anti-inflammatory activity against C57BL/6J mouse model of TNFalpha-induced systemic inflammatory response syndrome (SIRS) assessed as decrease in IL-1beta level in heart at 5 mg/kg,po 2 hrs prior to mTNFalpha and z-VAD-FMK stimulation for 8 hrs by ELISA; format: functional, organism-based; conditions: time 10.0 hrs
Mus musculus [17] = assay: Anti-inflammatory activity against C57BL/6J mouse model of TNFalpha-induced systemic inflammatory response syndrome (SIRS) assessed as decrease in IL-1beta level in brain at 5 mg/kg,po 2 hrs prior to mTNFalpha and z-VAD-FMK stimulation for 8 hrs by ELISA; format: functional, organism-based; conditions: time 10.0 hrs
Mus musculus [18] = assay: Anti-inflammatory activity against C57BL/6J mouse model of TNFalpha-induced systemic inflammatory response syndrome (SIRS) assessed as decrease in IL-1beta level in liver at 5 mg/kg,po 2 hrs prior to mTNFalpha and z-VAD-FMK stimulation for 8 hrs by ELISA; format: functional, organism-based; conditions: time 10.0 hrs
Mus musculus [19] = assay: Anti-inflammatory activity against C57BL/6J mouse model of TNFalpha-induced systemic inflammatory response syndrome (SIRS) assessed as decrease in IL-1beta level in kidney at 5 mg/kg,po 2 hrs prior to mTNFalpha and z-VAD-FMK stimulation for 8 hrs by ELISA; format: functional, organism-based; conditions: time 10.0 hrs
Mus musculus [20] = assay: Anti-inflammatory activity against C57BL/6J mouse model of TNFalpha-induced systemic inflammatory response syndrome (SIRS) assessed as decrease in IL-1beta level in spleen at 5 mg/kg,po 2 hrs prior to mTNFalpha and z-VAD-FMK stimulation for 8 hrs by ELISA; format: functional, organism-based; conditions: time 10.0 hrs
Mus musculus [21] = assay: Anti-inflammatory activity against C57BL/6J mouse model of TNFalpha-induced systemic inflammatory response syndrome (SIRS) assessed as decrease in IL-1beta level in lung at 5 mg/kg,po 2 hrs prior to mTNFalpha and z-VAD-FMK stimulation for 8 hrs by ELISA; format: functional, organism-based; conditions: time 10.0 hrs
Mus musculus [22] = assay: Anti-inflammatory activity against C57BL/6J mouse model of TNFalpha-induced systemic inflammatory response syndrome (SIRS) assessed as decrease in IL-1beta level in intestine at 5 mg/kg,po 2 hrs prior to mTNFalpha and z-VAD-FMK stimulation for 8 hrs by ELISA; format: functional, organism-based; conditions: time 10.0 hrs

Sequence of Receptor-interacting serine/threonine-protein kinase 3 (Q9Y572 whole entry): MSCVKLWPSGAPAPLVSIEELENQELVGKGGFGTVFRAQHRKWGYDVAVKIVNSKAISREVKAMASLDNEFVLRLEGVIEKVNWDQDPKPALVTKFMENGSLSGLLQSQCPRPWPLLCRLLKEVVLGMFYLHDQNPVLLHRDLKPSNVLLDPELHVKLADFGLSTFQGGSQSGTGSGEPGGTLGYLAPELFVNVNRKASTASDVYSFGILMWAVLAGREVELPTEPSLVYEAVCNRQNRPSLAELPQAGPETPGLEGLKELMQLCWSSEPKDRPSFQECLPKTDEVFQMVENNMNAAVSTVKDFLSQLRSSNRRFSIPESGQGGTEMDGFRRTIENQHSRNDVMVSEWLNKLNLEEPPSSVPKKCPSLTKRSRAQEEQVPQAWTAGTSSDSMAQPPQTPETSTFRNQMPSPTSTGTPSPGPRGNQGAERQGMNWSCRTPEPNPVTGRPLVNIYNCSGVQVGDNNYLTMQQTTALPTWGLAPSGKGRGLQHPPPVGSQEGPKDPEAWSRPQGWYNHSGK

| SMILES | EC50 (HT-29 [1]) [nM] | CC50 [2] [µM] | also measured |
| --- | --- | --- | --- |
| O=C(Cc1cccc(OC(F)(F)F)c1)Nc1cc(Nc2ccc3nc(NC(=O)C4CC4)sc3c2)ccc1F | 1240 | > 10 |  |
| O=C(Cc1cccc(OC(F)(F)F)c1)Nc1cc(-c2cccc3nc(NC(=O)C4CC4)sc23)ccc1F | > 20000 | > 10 |  |
| O=C(Cc1cccc(OC(F)(F)F)c1)Nc1c(F)cccc1-c1ccc2nc(NC(=O)C3CC3)sc2c1 | > 20000 | > 10 |  |
| O=C(Cc1cccc(OC(F)(F)F)c1)Nc1cc(Sc2ccc3nc(NC(=O)C4CC4)sc3c2)ccc1F | 1560 | > 10 |  |
| O=C(Cc1cccc(OC(F)(F)F)c1)Nc1cc(C(=O)c2ccc3nc(NC(=O)C4CC4)sc3c2)ccc1F | 2040 | > 10 |  |
| O=C(Cc1cccc(OC(F)(F)F)c1)Nc1cc(-c2ccc3sc(NC(=O)C4CC4)nc3c2)ccc1F | > 20000 | > 10 |  |
| O=C(Cc1cccc(OC(F)(F)F)c1)Nc1cc(NC(=O)c2ccc3nc(NC(=O)C4CC4)sc3c2)ccc1F | 3130 | > 10 |  |
| O=C(Cc1cccc(OC(F)(F)F)c1)Nc1cc(C#Cc2ccc3nc(NC(=O)C4CC4)sc3c2)ccc1F | 200 | > 10 |  |
| O=C(Cc1cccc(C(F)(F)F)c1)Nc1cc(Oc2cc3sc(NC(=O)C4CC4)nc3cc2F)ccc1F |  |  | EC50 (HT-29 [3]): 8 nM |
| CN(c1ccc(F)c(NC(=O)Cc2cccc(OC(F)(F)F)c2)c1)c1ccc2nc(NC(=O)C3CC3)sc2c1 | 750 | > 10 |  |
| O=C(Cc1cccc(OC(F)(F)F)c1)Nc1cc(Cc2ccc3nc(NC(=O)C4CC4)sc3c2)ccc1F | 310 | > 10 |  |
| O=C(Cc1cccc(OC(F)(F)F)c1)Nc1cc(-c2cccc3sc(NC(=O)C4CC4)nc23)ccc1F | > 20000 | > 10 |  |
| O=C(Cc1cccc(OC(F)(F)F)c1)Nc1ccc(-c2ccc3nc(NC(=O)C4CC4)sc3c2)cc1F | > 20000 | > 10 |  |
| O=C(Nc1cccc(C(F)(F)F)c1)Nc1cc(Oc2ccc3nc(NC(=O)C4CC4)sc3c2)ccc1F |  |  | Activity (HT-29 [4]): Active |
| O=C(Cc1cccc(OC(F)(F)F)c1)Nc1cccc(-c2ccc3nc(NC(=O)C4CC4)sc3c2)c1F | 340 | > 10 | Kd [5]: 140 nM; Kd [6]: > 5 µM |
| O=C(Cc1cccc(OC(F)(F)F)c1)Nc1cc(COc2ccc3nc(NC(=O)C4CC4)sc3c2)ccc1F | 900 | > 10 |  |
| O=C(Cc1cccc(OC(F)(F)F)c1)Nc1cc(C(O)c2ccc3nc(NC(=O)C4CC4)sc3c2)ccc1F (stereo not given) | 710 | > 10 |  |
| O=C(Cc1cccc(OC(F)(F)F)c1)Nc1cc(Oc2ccc3nc(NC(=O)C4CC4)sc3c2)ccc1F |  |  | Activity (HT-29 [4]): Active; Activity (Mus musculus [7]): inactive; survival at 5 mg/kg (Mus musculus [8]): 40%; Activity (Mus musculus [9]): inactive; Activity (Mus musculus [10]): inactive; Activity (Mus musculus [11]): inactive; Activity (Mus musculus [12]): inactive; Activity (Mus musculus [13]): inactive; Activity (Mus musculus [14]): inactive; Activity (Mus musculus [15]): inactive; Activity (Mus musculus [16]): inactive; Activity (Mus musculus [17]): inactive; Activity (Mus musculus [18]): inactive; Activity (Mus musculus [19]): inactive; Activity (Mus musculus [20]): inactive; Activity (Mus musculus [21]): inactive; Activity (Mus musculus [22]): inactive |
| O=C(Cc1cccc(OC(F)(F)F)c1)Nc1cc(C(=O)Nc2ccc3nc(NC(=O)C4CC4)sc3c2)ccc1F | 1260 | > 10 |  |
| O=C(Cc1cccc(OC(F)(F)F)c1)Nc1cc(S(=O)(=O)c2ccc3nc(NC(=O)C4CC4)sc3c2)ccc1F | > 20000 | > 10 |  |
